From ChEMBL document CHEMBL1127260, “EMD 61 753 as a favourable representative of structurally novel arylacetamido-type K opiate receptor agonists” (Bioorg Med Chem Lett, 1994)

Assays:
[1] = target: Kappa-type opioid receptor (Cavia porcellus, UniProt P41144); assay: Affinity at K opioid receptor on membranes prepared from guinea pig cerebellum by [3H]- 69593 displacement.; type: tissue-based
[2] = target: Delta-type opioid receptor (Rattus norvegicus, UniProt P33533); assay: Affinity to delta opioid receptor determined in the presence of [3H]- [D-Pen2,5]enkephalin using membranes prepared from rat cerebrum
Chain of Delta-type opioid receptor (P33533 whole entry): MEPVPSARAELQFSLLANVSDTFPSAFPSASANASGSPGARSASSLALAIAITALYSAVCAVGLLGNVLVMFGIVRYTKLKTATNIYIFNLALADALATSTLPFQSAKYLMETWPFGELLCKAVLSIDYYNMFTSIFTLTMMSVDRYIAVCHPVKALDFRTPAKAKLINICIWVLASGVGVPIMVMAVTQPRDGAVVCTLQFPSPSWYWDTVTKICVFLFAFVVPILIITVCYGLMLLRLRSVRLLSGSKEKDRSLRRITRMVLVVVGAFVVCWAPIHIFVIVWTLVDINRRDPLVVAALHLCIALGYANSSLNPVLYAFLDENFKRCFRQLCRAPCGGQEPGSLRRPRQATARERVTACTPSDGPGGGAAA

[3] = target: Mu-type opioid receptor (Rattus norvegicus, UniProt P33535); assay: Affinity to mu opioid receptor determined in the presence of [3H]- PL 017 using membranes prepared from rat cerebrum
Chain of Mu-type opioid receptor (P33535 whole entry): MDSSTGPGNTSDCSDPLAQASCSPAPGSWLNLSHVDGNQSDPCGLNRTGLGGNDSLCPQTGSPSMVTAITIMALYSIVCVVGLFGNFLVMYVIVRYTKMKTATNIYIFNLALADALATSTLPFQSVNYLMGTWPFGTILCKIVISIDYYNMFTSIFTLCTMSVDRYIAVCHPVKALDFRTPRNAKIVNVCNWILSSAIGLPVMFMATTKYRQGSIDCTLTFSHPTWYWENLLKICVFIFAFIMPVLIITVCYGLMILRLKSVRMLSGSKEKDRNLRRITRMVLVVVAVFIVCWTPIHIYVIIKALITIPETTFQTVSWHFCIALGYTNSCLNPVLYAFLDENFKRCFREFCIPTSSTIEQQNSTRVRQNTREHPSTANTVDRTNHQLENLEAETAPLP

[4] = tested on: Mus musculus; assay: Inhibitory dose (sc) in the formalin test in mice at late phase; type: functional; conditions: read-out: ID50 (the source's name)
[5] = tested on: Mus musculus; assay: Inhibitory dose (sc) in the formalin test in mice at early phase; type: functional; conditions: read-out: ID50 (the source's name)

Chain of Kappa-type opioid receptor (P41144 whole entry): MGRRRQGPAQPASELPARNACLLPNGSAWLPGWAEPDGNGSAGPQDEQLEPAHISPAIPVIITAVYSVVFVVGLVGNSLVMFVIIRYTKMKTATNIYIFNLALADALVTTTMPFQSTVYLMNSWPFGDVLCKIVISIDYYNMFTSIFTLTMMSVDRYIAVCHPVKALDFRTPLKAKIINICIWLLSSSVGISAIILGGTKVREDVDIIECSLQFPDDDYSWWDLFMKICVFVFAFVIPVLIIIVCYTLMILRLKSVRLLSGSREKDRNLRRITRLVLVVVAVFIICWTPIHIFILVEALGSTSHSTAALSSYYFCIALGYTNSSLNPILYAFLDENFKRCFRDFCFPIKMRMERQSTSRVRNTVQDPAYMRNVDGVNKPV

| SMILES | Ki ([1]; read-out: Ki) | Ki [2] | Ki [3] | Ki [1] | ED50 [4] | ED50 [5] |
| --- | --- | --- | --- | --- | --- | --- |
| CC(=O)Nc1cccc([C@@H](CN2CC[C@H](O)C2)N(C)C(=O)C(c2ccccc2)c2ccccc2)c1 | 6 nM | – | – | – | – | – |
| CN(C(=O)C(c1ccccc1)c1ccccc1)[C@H](CN1CC[C@H](O)C1)c1ccc(O)cc1 | 6 nM | – | – | – | – | – |
| CN(C(=O)C(c1ccccc1)C1CCCCC1)[C@H](CN1CC[C@H](O)C1)c1ccccc1 (stereo in doubt; form 2) | 10 nM | > 100 nM | > 100 nM | – | – | – |
| CN(C(=O)C(c1ccccc1)C1CCCCC1)[C@H](CN1CC[C@H](O)C1)c1ccccc1 (stereo in doubt; form 1) | 10 nM | > 100 nM | > 100 nM | – | – | – |
| CN(C(=O)C1c2ccccc2Cc2ccccc21)[C@H](CN1CC[C@H](O)C1)c1ccccc1 | 4 nM | > 100 nM | > 100 nM | – | – | – |
| CN(C(=O)C1c2ccccc2CCc2ccccc21)[C@H](CN1CC[C@H](O)C1)c1ccccc1.Cl | – | > 100 nM | > 100 nM | 20 nM l-1 | – | – |
| CN(C(=O)C1c2ccccc2-c2ccccc21)[C@H](CN1CC[C@H](O)C1)c1ccccc1 | 6 nM | 60 nM | 40 nM | – | – | – |
| COc1ccc([C@@H](CN2CC[C@H](O)C2)N(C)C(=O)C(c2ccccc2)c2ccccc2)cc1 | 7 nM | – | – | – | – | – |
| CC(C)[C@@H](CN1CCCC1)N(C)C(=O)Cc1ccc(Cl)c(Cl)c1 | – | – | – | – | 0.02 mg/kg | 0.04 mg/kg |
| CN(C(=O)C1c2ccccc2Oc2ccccc21)[C@H](CN1CC[C@H](O)C1)c1ccccc1 | 4 nM | > 100 nM | > 100 nM | – | – | – |
| CN(C(=O)C(c1ccc(F)cc1)c1ccc(F)cc1)[C@H](CN1CC[C@H](O)C1)c1ccccc1 | 7 nM | > 100 nM | > 100 nM | – | – | – |
| CN(C(=O)C(c1ccc(Cl)cc1)c1ccc(Cl)cc1)[C@H](CN1CC[C@H](O)C1)c1ccccc1 | 5 nM | > 100 nM | > 100 nM | – | – | – |
| CN(C(=O)C(c1ccccc1)c1ccccc1)[C@H](CN1CC[C@H](O)C1)c1ccccc1.Cl [ASIMADOLINE HYDROCHLORIDE] | – | > 100 nM | > 100 nM | – | 0.24 mg/kg | > 2 mg/kg |
| Cc1ccc(C(C(=O)N(C)[C@H](CN2CC[C@H](O)C2)c2ccccc2)c2ccc(C)cc2)cc1.Cl | – | > 100 nM | > 100 nM | 20 nM l-1 | – | – |
| CN(C(=O)C1c2ccccc2Sc2ccccc21)[C@H](CN1CC[C@H](O)C1)c1ccccc1 | 10 nM | > 100 nM | > 100 nM | – | – | – |
| CN1CC[C@]23c4c5ccc(O)c4O[C@H]2[C@@H](O)C=C[C@H]3[C@H]1C5 [MORPHINE] | – | – | – | – | 3.4 mg/kg | 1.7 mg/kg |
| CN(C(=O)C(c1ccccc1)c1ccccc1)[C@H](CN1CC[C@H](O)C1)c1cccc([N+](=O)[O-])c1.Cl | – | – | – | 20 nM l-1 | – | – |
| CN(C(=O)C(c1ccccc1)c1ccccc1)[C@H](CN1CC[C@H](O)C1)c1cccc(N)c1 | 6 nM | – | – | – | – | – |
| CN(C(=O)C(c1cccs1)c1cccs1)[C@H](CN1CC[C@H](O)C1)c1ccccc1 | 4 nM | > 100 nM | > 100 nM | – | – | – |
